From patent publication US8598118B2, “Hepatocyte growth factor mimics as therapeutic agents” (Washington State University, priority 2011, dated 2013) come the findings set out here.

Experiment [1] has as its target T1, c-Met receptor (Rattus norvegicus, UniProt P97523).
T1 construct: Dissociated hippocampal neurons were transfected with mRFP-β-actin and shMet RNA; endogenous in cells; host or cells: dissociated hippocampal neurons from P1-2 Sprague Dawley rats
Description: Effect of c-Met knock-down (shMet) on spinogenesis in hippocampal neurons. It is filed as cell-based. The following applies: HGF 10 ng/ml, 48 hours. The source says: (§1) Neurons were transfected with mRFP-β-actin on day in vitro 6 (DIV6) using LipofectAMINE™ 2000 (Invitrogen) according to the manufacturer's protocol. This protocol yielded the desired 3-5% transfection efficiency thus enabling the visualization of individual neurons. Higher efficiencies obscured the dendritic arbor of individual neurons. Expression of fluorescently tagged actin allowed clear visualization of dendritic spines, as dendritic spines are enriched in actin. On DIV7 the cells were treated with vehicle (H20) or peptides (as described in the text) added to media. On DIV 12 the neurons were fixed (4% paraformaldehyde, 3% sucrose, 60 mM PIPES, 25 mM HEPES, 5 mM EGTA, 1 mM MgCl2, pH 7.4) for 20 min at room temperature and mounted. Slides were dried for at least 20 hours at 4° C. and fluorescent images were obtained with Slidebook 4.2 Digital Microscopy Software driving an Olympus IX81 inverted confocal microscope with a 60× oil immersion lens, NA 1.4 and resolution 0.280 μm Dendritic spine density was measured on primary and secondary dendrites at a distance of at least 150 μm from the soma. Five 50 μm long segments of dendrite from at least 10 neurons per data point were analyzed for each data point reported. Each experiment was repeated at least three times using independent culture preparations. Dendrite length was determined using the National Institutes of Health's Image J 1.41o program (NIH, Bethesda, Md.) and the neurite tracing program Neuron J (Meijering, Jacob et al. 2004) Spines were manually counted.
A target sequence for c-Met was designed using RNAi central design program (see the website located at cancan.cshl.edu/). […]. The shRNA was transfected into cells using the lipofectamine method described above. Verification of receptor knockdown was done by creating a c-Met-6-Myc tagged gene product using the Gateway cloning system (Invitrogen). […]

Experiment [2] concerns hippocampal neurons. Nature of the experiment: Spinogenesis in mRFP-β-actin transfected dissociated hippocampal neurons. It is filed as cell-based, rat. The following applies: 5 days. The protocol: (§2) Hippocampal neurons (2×10^5 cells per square cm) were cultured from P1 Sprague Dawley rats on plates coated with poly-L-lysine from Sigma (St. Louis, Mo.; molecular weight 300,000). Hippocampal neurons were maintained in Neurobasal A media from Invitrogen (Carlsbad, Calif.) supplemented with B27 from Invitrogen, 0.5 mM L-glutamine, and […] cytosine-D-arabinofuranoside from Sigma added at 2 days in vitro. Hippocampal neurons were then cultured a further 3-7 days, at which time they were either transfected or treated with various pharmacological reagents as described in (Wayman, Davare et al. 2008).
as §1
as §2, with “centimeter)” for “cm)”, “P1-2” for “P1”, “the text or figure legends.” for “(Wayman, Davare et al. 2008).”

Experiment [3] relates to hippocampal neurons. Nature of the experiment: Whole-cell recordings of AMPA-mediated mEPSCs. Type of experiment: cell-based, rat. The following applies: HGF 10 ng/ml, 5 days (Example 2).

“And” between values parts separate entries of the source, which are not always exact repeats. Identical values can stand only once.

T1 sequence (P17945 33-495 partner limits assumed): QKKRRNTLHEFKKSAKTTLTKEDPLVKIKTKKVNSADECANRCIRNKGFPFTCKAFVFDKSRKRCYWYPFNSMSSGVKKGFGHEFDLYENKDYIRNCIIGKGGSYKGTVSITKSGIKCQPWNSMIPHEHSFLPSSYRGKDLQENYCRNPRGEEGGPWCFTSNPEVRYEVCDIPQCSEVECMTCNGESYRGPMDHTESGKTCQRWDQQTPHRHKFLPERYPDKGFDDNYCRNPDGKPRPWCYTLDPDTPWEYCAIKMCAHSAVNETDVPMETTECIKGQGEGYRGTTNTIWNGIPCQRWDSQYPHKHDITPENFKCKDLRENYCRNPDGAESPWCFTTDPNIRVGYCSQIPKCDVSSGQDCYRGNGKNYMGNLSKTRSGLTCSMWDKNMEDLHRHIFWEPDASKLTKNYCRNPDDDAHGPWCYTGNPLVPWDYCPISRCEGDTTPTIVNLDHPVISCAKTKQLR
T1 sequence (P17945 496-728 partner limits assumed): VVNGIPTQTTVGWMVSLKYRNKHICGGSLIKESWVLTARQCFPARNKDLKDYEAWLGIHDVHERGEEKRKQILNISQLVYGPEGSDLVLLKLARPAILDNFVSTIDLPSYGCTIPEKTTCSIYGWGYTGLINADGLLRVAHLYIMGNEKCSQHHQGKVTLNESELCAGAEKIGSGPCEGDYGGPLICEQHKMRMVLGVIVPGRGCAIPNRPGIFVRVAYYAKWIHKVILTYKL
T1 sequence (P97523 25-1382): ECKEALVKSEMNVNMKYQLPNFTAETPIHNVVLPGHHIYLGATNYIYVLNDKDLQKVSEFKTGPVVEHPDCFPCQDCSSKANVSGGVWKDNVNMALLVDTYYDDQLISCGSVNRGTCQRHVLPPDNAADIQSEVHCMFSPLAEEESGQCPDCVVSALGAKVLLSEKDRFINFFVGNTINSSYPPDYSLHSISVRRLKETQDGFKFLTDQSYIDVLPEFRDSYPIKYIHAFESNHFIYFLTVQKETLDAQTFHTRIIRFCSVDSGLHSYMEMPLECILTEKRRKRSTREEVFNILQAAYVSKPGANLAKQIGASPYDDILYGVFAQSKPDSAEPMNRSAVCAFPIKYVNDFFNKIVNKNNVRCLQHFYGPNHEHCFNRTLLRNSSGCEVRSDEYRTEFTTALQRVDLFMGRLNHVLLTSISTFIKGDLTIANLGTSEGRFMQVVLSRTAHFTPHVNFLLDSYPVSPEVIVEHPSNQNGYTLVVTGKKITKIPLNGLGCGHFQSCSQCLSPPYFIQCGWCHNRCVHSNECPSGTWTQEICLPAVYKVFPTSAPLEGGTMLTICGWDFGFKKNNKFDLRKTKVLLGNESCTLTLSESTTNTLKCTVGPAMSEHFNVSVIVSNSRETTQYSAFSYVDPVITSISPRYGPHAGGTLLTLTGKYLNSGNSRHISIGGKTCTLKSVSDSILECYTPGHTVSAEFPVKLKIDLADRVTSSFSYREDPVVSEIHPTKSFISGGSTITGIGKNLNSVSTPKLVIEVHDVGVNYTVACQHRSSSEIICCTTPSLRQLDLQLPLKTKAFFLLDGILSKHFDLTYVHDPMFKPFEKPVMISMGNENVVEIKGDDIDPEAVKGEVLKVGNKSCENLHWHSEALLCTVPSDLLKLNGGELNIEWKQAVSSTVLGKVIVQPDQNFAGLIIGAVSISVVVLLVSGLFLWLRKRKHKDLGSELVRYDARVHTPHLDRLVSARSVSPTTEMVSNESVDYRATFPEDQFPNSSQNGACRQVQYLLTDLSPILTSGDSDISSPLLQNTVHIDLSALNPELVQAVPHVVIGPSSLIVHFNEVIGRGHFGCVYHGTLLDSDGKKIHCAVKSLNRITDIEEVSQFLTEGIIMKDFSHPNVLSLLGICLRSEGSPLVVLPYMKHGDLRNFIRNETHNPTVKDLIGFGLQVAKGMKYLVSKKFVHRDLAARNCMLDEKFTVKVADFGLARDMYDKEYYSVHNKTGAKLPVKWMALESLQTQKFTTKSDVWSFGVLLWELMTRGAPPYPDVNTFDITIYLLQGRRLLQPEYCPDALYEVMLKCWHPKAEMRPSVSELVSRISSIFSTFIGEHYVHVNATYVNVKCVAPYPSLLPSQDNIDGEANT

Take “HGF: carrier free adult recombinant Hepatocyte Growth Factor (R and D Systems)”: the “mean spine numbers per 50 μm dendrite length” value is 20.6 in experiment [1] (neurons transfected with mRFP-β-actin alone); 12.4 in experiment [1] (neurons transfected with mRFP-β-actin and shMet); 27.5 and 33 and 29.3 in experiment [2] (HGF 10 ng/ml). Moreover, the mean spine numbers in experiment [2] (HGF 2.5 ng/ml) was 18.6 and 16.5; in experiment [2] (HGF 5 ng/ml), 24.7; in experiment [2] (HGF 20 ng/ml), 27.0. In experiment [3], the “mean frequency of mEPSCs” value was 7.09±0.53 and 9.66±0.20.
